Results reported in article PMC6406907, “A H2AX–CARP-1 Interaction Regulates Apoptosis Signaling Following DNA Damage” (Cancers, 2019).

Legend:
Type in all cases: cell-based, human
[1] = tested on: CARP-1, phospho-JNK1/2, phospho-H2AX, PARP; test: Western blot of CARP-1, phospho-JNK1/2, γH2AX, cleaved PARP in MDA-MB-468; conditions: for expression of CARP-1, phospho-JNK1/2, phospho-H2AX / PARP cleavage: MDA-MB-468, WB; for PARP cleavage: robust cleaved PARP over 12-h treatment period; for CARP-1 levels and γH2AX: MDA-MB-468, WB / IF
Method: (§1) Logarithmically growing cells were either untreated or treated with different agents for various time periods. The cells were lysed to prepare protein extracts. IP was carried out by incubating approximately 1 mg of the protein lysate with appropriate antibodies. The immunoprecipitates were then analyzed by SDS-PAGE, followed by WB with respective, interacting protein. For Gst-pulldown, Gst-H2AX or various His-TAT-HA-tagged CARP-1 peptides were generated in Escherichia coli (E. coli) BL21 cells essentially as described by us previously. Briefly, the competent E. coli BL-21 (DE3) pLysS cells were transformed separately with various recombinant pGEX-4T-1 or pTAT-HA constructs. The transformed cells were then subjected to selection by combined presence of ampicillin and chloramphenicol; various isolates for each transformation were obtained and bacterial lysates were characterized for expression of fusion peptides. Cells from each isolate were grown in 4 mL of LB medium containing ampicillin only until the optical density (OD)600 reached 0.4–0.8. Expression of fusion peptides was induced over 2–4 h incubation periods after Isopropyl β-D-1-thiogalactopyranoside (IPTG) addition. The cells were harvested, and pellets were stored at −80 °C overnight. The cell pellets were then lysed in 100–400 μL of bacterial protein extraction reagent (BPER) buffer (Thermo Scientific, Waltham, MA, USA, Cat# 78243) containing 2 μL/mL of 10 units/μL DNAse I (Boehringer Mannheim, Fremont, CA, USA, Cat # 776–785), and supernatant checked for expression of respective fusion peptides by WB. Following confirmation of expression, 5–20 μL of lysate expressing Gst fusion protein was first incubated with 20 μL of precleared glutathione sepharose in a final volume of 100 μL at 4 °C for 2 h with constant rotation. The sepharose beads were spun at 800× g for 2 min, and the pellet was washed 2–4 times with 100–200 μL of RIPA buffer (20 mM Tris-HCl (pH 7.5), 150 mM NaCl, 1 mM Na2EDTA, 1 mM EGTA, 1% NP-40, 1% sodium deoxycholate, 2.5 mM sodium pyrophosphate, 1 mM β-glycerophosphate, 1 mM Na3VO4, 1 µg/mL leupeptin) with 0.5 M NaCl. The beads were spun again as above, and mixed with 5–20 μL of E. coli lysate expressing His-TAT-HA CARP-1 peptides. The reactions were incubated further at 4 °C for 2 h with constant rotation. The peptide-bound sepharose beads were pelleted and washed with 100–200 μL of RIPA buffer with 0.1 M NaCl for 2–4 washes. In some cases, additional washes with 0.05 M NaCl buffer were carried out. After the final wash, the sepharose–protein complexes were spun, and then re-suspended in SDS loading buffer for electrophoresis on 12–15% SDS PAGE, followed by WB with appropriate antibodies.
Here, we utilized human TNBC MDA-MB-468 and human cervical cancer HeLa cells to conduct an MTT-based dose-response analysis using Adriamycin and CFM compounds. […] Since Adriamycin, CFM-4, and CFM-4.16 have molecular masses of 543.3, 404.9, and 440.3, respectively, we chose to use an equimolar dose of each compound in the MTT assays. […] Prior reports established that phosphorylation of H2AX at serine 139 (γ-H2AX) is involved in DNA damage repair and apoptotic signaling by ATM/ATR and JNKs, respectively. Next, the MDA-MB-468, HeLa, and the kidney cancer UOK 262 cells were treated with a 10 μM dose of the CFM-4.16 or Adriamycin for various time periods. The cell lysates from the control, untreated, and treated cells were analyzed by WB for expression of CARP-1, phospho-JNK1/2, phospho-H2AX, and poly ADP ribose polymerase (PARP) proteins. […] The H2AX activation is also indicative of DNA damage and involves pro-apoptotic JNKs. Our data in Figure 1C and Figure S1B,C (Supplementary Materials) also show activation of JNKs; however, a robust JNK activation is co-incident with H2AX phosphorylation following treatments with Adriamycin or CFM-4.16. […]

CARP-1 and γH2AX = test: WB/IF of CARP-1 and γH2AX in HCC827; conditions: for CARP-1 and γH2AX increase after knock-down of CARP-1: HCC827, CARP-1 knock-down; for CARP-1 levels and γH2AX: HCC827, WB / IF
Method: as §1
Cells were plated onto chamber slides one day before treatment. […]

[2] = tested on: MDA-MB-468 cells expressing EGFP or EGFP-CARP-1 (636–650); test: Flow cytometric analysis of apoptosis, MDA-MB-468 sublines; conditions: 10 μM, 24 h, EGFP vs EGFP-CARP-1 (636–650)-expressing MDA-MB-468
[3] = tested on: CARP-1, phospho-JNK1/2, phospho-H2AX, PARP; test: Western blot of CARP-1, phospho-JNK1/2, γH2AX, cleaved PARP in MDA-MB-468; conditions: for CARP-1 and γH2AX increase after knock-down of CARP-1: MDA-MB-468, CARP-1 knock-down; for JNK1/2 and H2AX activation: cells overexpressing myc-His-tagged CARP-1, WB

Row | Compound | H2AX activation ([1]; 10 μM Adriamycin, WB) | expression of CARP-1, phospho-JNK1/2, phospho-H2AX ([1]; 10 μM) | PARP cleavage ([1]; 10 μM) | time of earliest stimulation of PARP cleavage ([1]; 10 μM, MDA-MB-468, "as early as") [h] | γH2AX ([1]; MDA-MB-468, Adriamycin alone, WB) | CARP-1 levels and γH2AX [1] | CARP-1 and γH2AX increase after knock-down of CARP-1 (CARP-1 and γH2AX) | CARP-1 levels and γH2AX (CARP-1 and γH2AX) | cells undergoing apoptosis [2] | CARP-1 and γH2AX increase after knock-down of CARP-1 [3] | levels of CARP-1 ([3]; MDA-MB-468, single agent (JNK-IN-8 at 5 μM), WB) | JNK1/2 and H2AX activation [3]
1 | COc1cccc2c1C(=O)c1c(O)c3c(c(O)c1C2=O)C[C@@](O)(C(=O)CO)C[C@@H]3O[C@H]1C[C@H](N)[C@H](O)[C@H](C)O1 [Adriamycin, doxorubicin, reference compound] | robust at 12 h | stimulated expression of CARP-1, phospho-JNK1/2, and phospho-H2AX in a time-dependent manner | provoked PARP cleavage in a time-dependent manner | 3 | robust increase in γH2AX | robust increase in CARP-1 levels and γH2AX | abrogated CARP-1 and γH2AX increase | robust increase in CARP-1 levels and γH2AX | generally higher percentage of EGFP-expressing cells undergoing apoptosis | abrogated CARP-1 and γH2AX increase | elevated levels of CARP-1 | time-dependent stimulation of JNK1/2 and H2AX activation
2 | O=C1N(Cc2ccccc2Cl)c2ccccc2C12NN=C(c1cccc(Cl)c1)S2 (centres unmarked) [CFM-4.16] | – | stimulated expression of CARP-1, phospho-JNK1/2, and phospho-H2AX in a time-dependent manner | provoked PARP cleavage in a time-dependent manner | – | – | robust increase in CARP-1 levels and γH2AX | abrogated CARP-1 and γH2AX increase | robust increase in CARP-1 levels and γH2AX | generally higher percentage of EGFP-expressing cells undergoing apoptosis | abrogated CARP-1 and γH2AX increase | – | time-dependent stimulation of JNK1/2 and H2AX activation
